Patent US10744152B2, “Application of Asarum total polysaccharides in preparation of medicine for treating cough” (THE FIRST AFFILIATED HOSPITAL OF GUANGZHOU MEDICAL …, priority 2014, dated 2020)
Marks after values point to notes of the source that are not given here.

Legend:
[1] = tested on: guinea pig models with cough hypersensitivity; experiment: Airway inflammation indicators in BALF (TCC, classification of cells) of guinea pig models with cough hypersensitivity; assay type: in vivo; details: 30 mg/kg, 14 days
From the text: Experimental materials are same as those of the Embodiment 5. […] Schmidt var.

[2] = tested on: guinea pig models with acute cough; experiment: Acute antitussive effect on cough of guinea pigs induced by citric acid
[3] = tested on: guinea pig models with cough hypersensitivity; experiment: Antitussive effect on guinea pig models with cough hypersensitivity (CS-exposure 14 days, citric acid excitation); assay type: in vivo; details: for Antitussive rate: vs model group
Protocol: (1) Calculating the cough frequency within 6 min after citric acid excitation, and calculating the antitussive rate of each administration group by using the formula “the antitussive rate=(Nmodel group−Nadministration group)/Nmodel group×100%”.
(2) Calculating the cough latent period of each administration group within 6 min after citric acid excitation;
Experimental materials are same as those of the Embodiment 5. […] Schmidt var. Mandshuricum (Maxim.) Kitag. into pieces, adding 20 times amount of distilled water to soak the cut roots overnight, extracting decoction from boiling water for 6 hours, filtering the decoction with four layers of gauze, repeatedly decocting filter residues twice, 6 hours each time, combining the filtrates, concentrating the filtrate to 1000 ml, precipitating with 80% of ethanol, centrifuging (4500 r/m, 10 min), and conventionally drying the precipitates (washing the precipitates three times with each of ethanol and ether) to obtain coarse Asarum polysaccharides (Li Jingjing, Study on the Separation, Purification and Immunological Activity of Polysaccharide from Asarum heterotropoides, Journal of Changchun Normal University (Natural Science), 2008, 27(1): 54-58)), a group of the Asarum total polysaccharides extract in the Embodiment 1 (800 mg/kg), and a group of the Asarum total polysaccharide extract in the Embodiment 2 (800 mg/kg). The rest of experimental methods are same as the Embodiment 5.

Structure (SMILES): COc1ccc2c3c1O[C@H]1[C@@H](O)C=C[C@H]4[C@@H](C2)N(C)CC[C@@]341 [Codeine phosphate, codeine phosphate]
- Eos % ([1]; BALF): 3.6 +/− 3.1%
- Lym % ([1]; BALF): 5.3 +/− 1.1%
- Mac % ([1]; macrophages in BALF): 39.4 +/− 7.1%
- Neu % ([1]; neutrophils in BALF): 51.8 +/− 8.4%
- Cough frequency ([2]; 30 mg/kg once a day for 3 days, within 6 min after citric acid nebulization): 8.5 +/− 2.6*** times
- Cough latent period ([2]; 30 mg/kg, 3 days, after citric acid nebulization): 95.3 ± 18.3 s
- Antitussive rate ([2]; 30 mg/kg, 3 days, vs blank control group): 70.5%
- Cough frequency ([3]; 30 mg/kg intragastric once a day 14 days, CS-exposure 14 days, within 6 min after citric acid): 5.7 +/− 1.9*** times
- Cough latent period ([3]; 30 mg/kg, 14 days, CS-exposure, after citric acid): 199.7 +/− 37.7*** seconds
- Antitussive rate ([3]; 30 mg/kg, 14 days): 81.1%
- Cough frequency ([3]; Embodiment 8 comparison of different extracts, 30 mg/kg, 14 days): 5.7 +/− 1.9*** times
- Antitussive rate ([3]; Embodiment 8 comparison, 30 mg/kg, 14 days): 81.1%
